Experimental data taken from article PMC3691274, “Unraveling the Activation Mechanism of the Potato Tuber ADP-Glucose Pyrophosphorylase” (PLoS ONE, 2013).

Tests used:
Anabaena ADP-Glc PPase [1] = target: T1, Anabaena ADP-Glc PPase (Nostoc sp. PCC 7120 = FACHB-418, UniProt P30521, W96A); test: colorimetric Pi release assay (PPi hydrolysed by pyrophosphatase), Hill fit; type: biochemical; settings: read-out: A 0.5
T1 construct: gene glgC; recombinant from plasmid pAnaE3a in E. coli AC70R1-504, purified, homotetramer, no tag mentioned
From the text: (§1) colorimetric Pi release assay (PPi hydrolysed by pyrophosphatase), Hill fit on Anabaena ADP-Glc PPase (Ana WT)

Anabaena ADP-Glc PPase [2] = target: T2, Anabaena ADP-Glc PPase (Nostoc sp. PCC 7120 = FACHB-418, UniProt P30521, Q58A); test: as above; type: biochemical; settings: read-out: A 0.5
T2 construct: gene glgC; recombinant from plasmid pAnaE3a in E. coli AC70R1-504, purified, homotetramer, no tag mentioned
From the text: as §1

[3] = target: T3, Anabaena ADP-Glc PPase (Ana WT) (Nostoc sp. PCC 7120 = FACHB-418, UniProt P30521); test: as above; type: biochemical; settings: read-out: A 0.5
T3 construct: gene glgC; recombinant from plasmid pAnaE3a in E. coli AC70R1-504, purified, homotetramer, no tag mentioned
From the text: as §1

[4] = target: T4, potato tuber ADP-Glc PPase (StuS/StuL) (Solanum tuberosum, UniProt P23509+Q00081); settings: read-out: A 0.5; allosteric activator; 1.5 mM ATP, 0.5 mM [14C]Glc-1P, 7 mM MgCl2, 50 mM HEPPS pH 8.0, 37°C
T4 sequence (P23509 71-521 limits assumed): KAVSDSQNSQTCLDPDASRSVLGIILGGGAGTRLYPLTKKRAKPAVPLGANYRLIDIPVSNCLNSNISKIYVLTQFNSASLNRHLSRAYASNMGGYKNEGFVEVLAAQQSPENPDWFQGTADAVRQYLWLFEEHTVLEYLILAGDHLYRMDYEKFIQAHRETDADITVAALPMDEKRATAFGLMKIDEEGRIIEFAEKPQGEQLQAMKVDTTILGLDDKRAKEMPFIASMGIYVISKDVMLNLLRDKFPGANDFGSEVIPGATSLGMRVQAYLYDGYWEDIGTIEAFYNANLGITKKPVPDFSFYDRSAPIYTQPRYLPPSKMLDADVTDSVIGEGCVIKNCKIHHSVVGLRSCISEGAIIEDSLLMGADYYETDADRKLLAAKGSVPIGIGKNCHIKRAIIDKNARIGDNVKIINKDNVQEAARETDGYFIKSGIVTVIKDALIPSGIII
T4 sequence (Q00081 7-470): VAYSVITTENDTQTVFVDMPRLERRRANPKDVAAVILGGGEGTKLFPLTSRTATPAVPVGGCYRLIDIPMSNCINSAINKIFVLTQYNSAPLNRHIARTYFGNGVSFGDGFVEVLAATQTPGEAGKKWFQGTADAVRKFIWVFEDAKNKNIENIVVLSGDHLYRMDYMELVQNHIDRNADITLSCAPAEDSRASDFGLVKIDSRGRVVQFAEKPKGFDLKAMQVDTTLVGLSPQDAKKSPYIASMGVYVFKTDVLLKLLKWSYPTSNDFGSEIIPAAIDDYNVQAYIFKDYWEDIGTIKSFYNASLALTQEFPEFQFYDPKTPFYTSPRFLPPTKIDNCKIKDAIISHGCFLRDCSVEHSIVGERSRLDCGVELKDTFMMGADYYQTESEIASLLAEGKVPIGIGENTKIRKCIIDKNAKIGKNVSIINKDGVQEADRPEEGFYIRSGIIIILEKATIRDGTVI

T1 sequence (P30521 whole entry W96A): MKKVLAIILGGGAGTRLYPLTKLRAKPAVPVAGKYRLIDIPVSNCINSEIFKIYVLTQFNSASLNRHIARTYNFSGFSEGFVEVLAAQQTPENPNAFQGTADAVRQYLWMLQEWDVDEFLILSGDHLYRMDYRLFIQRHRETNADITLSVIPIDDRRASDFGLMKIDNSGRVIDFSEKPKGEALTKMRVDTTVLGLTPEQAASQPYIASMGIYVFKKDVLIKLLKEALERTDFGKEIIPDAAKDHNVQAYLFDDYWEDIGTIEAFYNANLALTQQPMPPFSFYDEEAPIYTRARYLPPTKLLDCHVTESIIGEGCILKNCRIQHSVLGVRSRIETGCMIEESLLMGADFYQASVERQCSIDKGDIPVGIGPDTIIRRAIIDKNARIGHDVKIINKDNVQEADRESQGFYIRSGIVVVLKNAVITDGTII
T3 sequence (P30521 whole entry): as the sequence (P30521 whole entry W96A) above, with A96W counted along it
T2 sequence (P30521 whole entry Q58A): as the sequence (P30521 whole entry W96A) above, with Q58A, A96W counted along it

O=C(O)[C@H](O)COP(=O)(O)O [3-PGA, 3-phosphoglycerate]
EC50 (Anabaena ADP-Glc PPase [1]): 83 ± 8 µM | EC50 (Anabaena ADP-Glc PPase [2]): 95 ± 8 µM | EC50 [3]: 76 ± 4 µM | EC50 [4]: 54 ± 4 µM
